molecular target: human LPA1 receptor (Homo sapiens (Human), UniProt Q92633); test: Beta-arrestin recruitment assay to determine IC50 values for human LPAR1; format: cell-based; conditions: antagonist mode, Tango EDG2-bla U2OS cells, LPA 18:1 500 nM final
In short: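 Antagonist IC50 = concentration giving 50% inhibition of maximal LPA response. Read-out is beta-lactamase reporter activity after arrestin-protease recruitment in U2OS cells bearing LPA1-TEV-Gal4-VP16 construct; cells pre-incubated 20 h, 37 °C, 5% CO2.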

human LPA1 receptor, sequence (Q92633 whole entry, the tested form may be a part): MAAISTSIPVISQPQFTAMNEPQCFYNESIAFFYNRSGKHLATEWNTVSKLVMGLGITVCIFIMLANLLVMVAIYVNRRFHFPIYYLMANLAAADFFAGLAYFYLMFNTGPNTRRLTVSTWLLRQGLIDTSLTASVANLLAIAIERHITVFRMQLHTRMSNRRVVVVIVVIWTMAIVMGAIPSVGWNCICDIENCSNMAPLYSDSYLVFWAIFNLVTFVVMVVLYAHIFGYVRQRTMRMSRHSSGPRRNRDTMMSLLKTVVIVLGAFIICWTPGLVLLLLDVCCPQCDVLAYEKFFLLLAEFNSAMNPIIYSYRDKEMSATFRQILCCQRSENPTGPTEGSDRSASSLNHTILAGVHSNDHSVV

Row | IC50 [µM] | SMILES
1 | 0.061 | Cc1cnc(NC(=O)C2(c3ccccc3C(C)C)CN(C(=O)CC3(C(=O)O)CCC3)C2)c(OC(F)F)c1 [Ex 79-7, 1-(2-(3-((3-(difluoromethoxy)-5-methylpyridin-2-yl)carbamoyl)-3-(2-isopropylphenyl)azetidin-1-yl)-2-oxoethyl)cyclobutane-1-carboxylic acid]
2 | 0.072 | COC(=O)CCCCS(=O)(=O)N1CC(C(=O)Nc2ccc(C)nc2OC(F)F)(c2ccccc2C(C)C)C1 [Ex 13-18, methyl 5-((3-((2-(difluoromethoxy)-6-methylpyridin-3-yl)carbamoyl)-3-(2-isopropylphenyl)azetidin-1-yl)sulfonyl)pentanoate]
3 | 0.006 | Cc1ccc(NC(=O)C2(c3ccccc3C(C)C)CN(C(=O)CNOCc3ccccc3)C2)c(OC(F)F)n1 [Ex 12-134, 1-((benzyloxy)glycyl)-N-(2-(difluoromethoxy)-6-methylpyridin-3-yl)-3-(2-isopropylphenyl)azetidine-3-carboxamide]
4 | 0.064 | COC(=O)c1cccc(CN2CC(C(=O)Nc3ccc(C)nc3OC(F)F)(c3ccccc3C(C)C)C2)n1 [Ex 11-45, methyl 6-((3-((2-(difluoromethoxy)-6-methylpyridin-3-yl)carbamoyl)-3-(2-isopropylphenyl)azetidin-1-yl)methyl)picolinate]
5 | 0.002 | COC(=O)C1(c2ncc(N3CC(C(=O)Nc4ccc(C)nc4OC(F)F)(c4ccccc4C(C)C)C3)cn2)CC1 [Ex 18-16, methyl 1-(5-(3-((2-(difluoromethoxy)-6-methylpyridin-3-yl)carbamoyl)-3-(2-isopropylphenyl)azetidin-1-yl)pyrimidin-2-yl)cyclopropane-1-carboxylate]
6 | 0.01 | Cc1ccc(NC(=O)C2(c3ccccc3C(C)C)CN(C(=O)CN[C@H](C)CO)C2)c(OC(F)F)n1 [Ex 12-58, (R)-N-(2-(difluoromethoxy)-6-methylpyridin-3-yl)-1-((R)-(1-hydroxypropan-2-yl)glycyl)-3-(2-isopropylphenyl)azetidine-3-carboxamide]
7 | 0.006 | Cc1ccc(NC(=O)C2(c3ccccc3C(C)C)CN(c3ccc(C(=O)O)cn3)C2)c(OC(F)F)n1 [Ex 18-2, 6-(3-((2-(difluoromethoxy)-6-methylpyridin-3-yl)carbamoyl)-3-(2-isopropylphenyl)azetidin-1-yl)nicotinic acid]
8 | 0.018 | Cc1ccc(NC(=O)C2(c3ccccc3C(C)C)CN(C(=O)CN(C)CC(=O)O)C2)c(OC(F)F)n1 [Ex 12-142, N-(2-(3-((2-(difluoromethoxy)-6-methylpyridin-3-yl)carbamoyl)-3-(2-isopropylphenyl)azetidin-1-yl)-2-oxoethyl)-N-methylglycine]
9 | 0.75 | CCOC(=O)c1cn[nH]c1S(=O)(=O)N1CC(C(=O)Nc2ccc(C)nc2OC(F)F)(c2ccccc2C(C)C)C1 [Ex 13-24, ethyl 5-((3-((2-(difluoromethoxy)-6-methylpyridin-3-yl)carbamoyl)-3-(2-isopropylphenyl)azetidin-1-yl)sulfonyl)-1H-pyrazole-4-carboxylate]
10 | 0.605 | COc1ccc(NC(=O)C2(c3ccccc3C(C)C)CN(C(=O)OC(C)(C)C)C2)c(OC)n1 [Ex 6-1, tert-butyl 3-((2,6-dimethoxypyridin-3-yl)carbamoyl)-3-(2-isopropylphenyl)azetidine-1-carboxylate]
11 | 0.009 | COCCNCC(=O)N1CCC(C(=O)Nc2ccc(C)nc2OC(F)F)(c2ccccc2C(C)C)CC1 [Ex 12-48, N-(2-(difluoromethoxy)-6-methylpyridin-3-yl)-4-(2-isopropylphenyl)-1-((2-methoxyethyl)glycyl)piperidine-4-carboxamide]
12 | 0.067 | COC(=O)Cn1cccc1CN1CC(C(=O)Nc2ccc(C)nc2OC(F)F)(c2ccccc2C(C)C)C1 [Ex 11-41, methyl 2-(2-((3-((2-(difluoromethoxy)-6-methylpyridin-3-yl)carbamoyl)-3-(2-isopropylphenyl)azetidin-1-yl)methyl)-1H-pyrrol-1-yl)acetate]
13 | 0.002 | Cc1ccc(NC(=O)C2(c3ccccc3C(C)C)CN(c3ncc(C#N)cn3)C2)c(OC(F)F)n1 [Ex 18-24, 1-(5-cyanopyrimidin-2-yl)-N-(2-(difluoromethoxy)-6-methylpyridin-3-yl)-3-(2-isopropylphenyl)azetidine-3-carboxamide]
14 | 0.007 | Cc1ccc(NC(=O)C2(c3ccccc3C(C)C)CN(C(=O)NCCC(C)(C)C(=O)O)C2)c(OC(F)F)n1 [Ex 17-19, 4-(3-((2-(difluoromethoxy)-6-methylpyridin-3-yl)carbamoyl)-3-(2-isopropylphenyl)azetidine-1-carboxamido)-2,2-dimethylbutanoic acid]
15 | 0.015 | Cc1ccc(NC(=O)C2(c3ccccc3C(C)C)CN(C(=O)C[C@H](C)C(=O)O)C2)c(OC(F)F)n1 [Ex 12-79, (S)-4-(3-((2-(difluoromethoxy)-6-methylpyridin-3-yl)carbamoyl)-3-(2-isopropylphenyl)azetidin-1-yl)-2-methyl-4-oxobutanoic acid]
16 | 0.191 | Cc1ccc(NC(=O)C2(c3ccccc3C(C)C)CN(C[C@@H](O)CN(C)C)C2)c(OC(F)F)n1 [Ex 11-85, (S)-N-(2-(difluoromethoxy)-6-methylpyridin-3-yl)-1-(3-(dimethylamino)-2-hydroxypropyl)-3-(2-isopropylphenyl)azetidine-3-carboxamide]
17 | 0.079 | Cc1ccc(NC(=O)C2(c3ccccc3C(C)C)CN(C(=O)C[C@H]3COCCN3)C2)c(OC(F)F)n1 [Ex 12-44, (S)-N-(2-(difluoromethoxy)-6-methylpyridin-3-yl)-3-(2-isopropylphenyl)-1-(2-(morpholin-3-yl)acetyl)azetidine-3-carboxamide]
18 | 0.004 | COC(=O)[C@H](C)NC(=O)N1CC(C(=O)Nc2ccc(C)nc2OC(F)F)(c2ccccc2C(C)C)C1 [Ex 17-8, methyl (3-((2-(difluoromethoxy)-6-methylpyridin-3-yl)carbamoyl)-3-(2-isopropylphenyl)azetidine-1-carbonyl)-L-alaninate]
19 | 0.36 | Cc1ccc(NC(=O)C2(c3ccccc3C(C)C)CN(C(=O)CCOCCOCCO)C2)c(OC(F)F)n1 [Ex 12-51, N-(2-(difluoromethoxy)-6-methylpyridin-3-yl)-1-(3-(2-(2-hydroxyethoxy)ethoxy)propanoyl)-3-(2-isopropylphenyl)azetidine-3-carboxamide]
20 | 0.03 | Cc1ccc(NC(=O)C2(c3ccccc3C(C)C)CCN(C(=O)CN(CCO)C(=O)OC(C)(C)C)CC2)c(OC(F)F)n1 [Ex 12-49, tert-butyl (2-(4-((2-(difluoromethoxy)-6-methylpyridin-3-yl)carbamoyl)-4-(2-isopropylphenyl)piperidin-1-yl)-2-oxoethyl)(2-hydroxyethyl)carbamate]
21 | 0.016 | COC(=O)c1ccc(N2CC(C(=O)Nc3ccc(C)nc3OC(F)F)(c3ccccc3C(C)C)C2)nc1 [Ex 18-1, Methyl 6-(3-((2-(difluoromethoxy)-6-methylpyridin-3-yl)carbamoyl)-3-(2-isopropylphenyl)azetidin-1-yl)nicotinate]
22 | 0.008 | CCCc1ccccc1C1(C(=O)Nc2ccc(C)nc2OC(F)F)CN(C(=O)CC(C)(C)C(=O)O)C1 [Ex 31-7, 4-(3-((2-(difluoromethoxy)-6-methylpyridin-3-yl)carbamoyl)-3-(2-propylphenyl)azetidin-1-yl)-2,2-dimethyl-4-oxobutanoic acid]
23 | 0.011 | Cc1ccc(NC(=O)C2(c3ccccc3C(C)C)CCN(C(N)=O)CC2)c(OC(F)F)n1 [Ex 17-20, N4-(2-(difluoromethoxy)-6-methylpyridin-3-yl)-4-(2-isopropylphenyl)piperidine-1,4-dicarboxamide]
24 | 0.063 | Cc1ccc(NC(=O)C2(c3ccccc3C(C)C)CN(C(=O)CNCC(C)(C)C(=O)O)C2)c(OC(F)F)n1 [Ex 45, 3-((2-(3-((2-(difluoromethoxy)-6-methylpyridin-3-yl)carbamoyl)-3-(2-isopropylphenyl)azetidin-1-yl)-2-oxoethyl)amino)-2,2-dimethylpropanoic acid]
25 | 0.009 | CC(=O)N(O)CC(=O)N1CC(C(=O)Nc2ccc(C)nc2OC(F)F)(c2ccccc2C(C)C)C1 [Ex 12-136, 1-(N-acetyl-N-hydroxyglycyl)-N-(2-(difluoromethoxy)-6-methylpyridin-3-yl)-3-(2-isopropylphenyl)azetidine-3-carboxamide]
26 | 0.005 | Cc1ccc(NC(=O)C2(c3ccccc3C(C)C)CN(C(=O)OCC3(C(=O)O)CC3)C2)c(OC(F)F)n1 [Ex 14-12, 1-(((3-((2-(difluoromethoxy)-6-methylpyridin-3-yl)carbamoyl)-3-(2-isopropylphenyl)azetidine-1-carbonyl)oxy)methyl)cyclopropane-1-carboxylic acid]
27 | 0.046 | Cc1ccc(NC(=O)C2(c3ccccc3C(C)C)CN(CC3(C(=O)O)COC3)C2)c(OC(F)F)n1 [Ex 11-91, 3-((3-((2-(difluoromethoxy)-6-methylpyridin-3-yl)carbamoyl)-3-(2-isopropylphenyl)azetidin-1-yl)methyl)oxetane-3-carboxylic acid]
28 | 0.011 | Cc1ccc(NC(=O)C2(c3ccccc3C(C)C)CN(S(=O)(=O)NCCO)C2)c(OC(F)F)n1 [Ex 15-3, N-(2-(difluoromethoxy)-6-methylpyridin-3-yl)-1-(N-(2-hydroxyethyl)sulfamoyl)-3-(2-isopropylphenyl)azetidine-3-carboxamide]
29 | 0.098 | COC(=O)C(C)(C)CCN1CC(C(=O)Nc2ccc(C)nc2OC(F)F)(c2ccccc2C(C)C)C1 [Ex 11-30, methyl 4-(3-((2-(difluoromethoxy)-6-methylpyridin-3-yl)carbamoyl)-3-(2-isopropylphenyl)azetidin-1-yl)-2,2-dimethylbutanoate]
30 | 0.003 | CC(C)c1ccccc1C1(C(=O)Nc2ncc(Br)cc2OC(F)F)CN(C(=O)NC2CC2)C1 [Ex 82-2, N3-(5-bromo-3-(difluoromethoxy)pyridin-2-yl)-N1-cyclopropyl-3-(2-isopropylphenyl)azetidine-1,3-dicarboxamide]

From US12344597B2, “Alkoxy-substituted pyridinyl derivatives as LPA1 receptor antagonists and their use in the treatment of fibrosis” (IDORSIA PHARMACEUTICALS LTD, priority 2018, dated 2025)
